Test results published in paper PMC9351465, “Mechanism-based heparanase inhibitors reduce cancer metastasis in vivo” (Proceedings of the National Academy of Sciences of the …, 2022).

Experiments:
Assay type in all cases: in vivo, mouse
B16 melanoma cells = assay: B16 murine melanoma experimental lung metastasis model; settings: C57BL/J6 mice, i.p. 300 nmol 2 or 150 μg SST0001, then i.v. B16 cells with 2 nmol 2 or 10 μg SST0001; after 14 d; vs PBS
Method: We initially tested a B16 murine melanoma metastasis model, measuring the formation of metastatic lung tumors by B16 melanoma cells after intravenous (i.v.) injection. The efficacy of covalent HPSE inhibition by 2 was compared to SST0001 (Roneparstat), a current best-in-class HPSE inhibitor and clinical trial candidate (SI Appendix, Fig. S1). Mice were inoculated intraperitoneally (i.p.) with 300 nmol of 2 (∼15 μmol/kg for a 20 g mouse), or 150 μg SST0001, followed by an i.v. injection of B16 cells alongside 2 nmol 2 or 10 μg SST0001.
For HS-degradation assays, ECM coated dishes were incubated with 200 ng recombinant HPSE in 1 mL reaction mixture (10 mM buffer Phosphate-Citrate pH 6.0, 50 mM NaCl, 1 mM DTT, 1 mM CaCl2) containing HPSE inhibitors or DMSO control. […] The Sepharose 6B column was eluted with PBS, and 35S radioactivity of 0.2 mL fractions quantitated using a liquid scintillation analyzer (Packard BioScience) (11). […]
Cells in the upper chamber were separated by Matrigel from a lower chamber containing 600 µL DMEM, supplemented with 10% FBS. […] 10 randomly selected microscopic fields were recorded, and cell invasion calculated using ImageJ, by quantitating the percentage of the field stained by crystal violet. […]
(§1) Mice were sacrificed after 14 days and the lungs were dissected, photographed and evaluated for the number of metastatic foci/lung. […]

4T1 breast cancer cells = assay: 4T1 murine mammary carcinoma lung metastasis model (luciferase imaging); settings: Balb/c mice, i.p. 300 nmol 2 or 150 μg SST0001, then i.v. 4T1-Luc cells with 2 nmol 2 or 10 μg SST0001; 14 d
Method: Since HPSE drives metastasis in multiple cancer types, we tested 2 against another metastasis model—4T1 murine mammary carcinoma, which also migrates to the lungs. Here, we were aided by a constitutive luciferase expressing 4T1 line, enabling real-time tracking of cancer growth by chemiluminescent imaging. Similar to the B16 model, mice were dosed i.p. with 300 nmol of 2 or 150 μg SST0001, followed by i.v. injection of 4T1-Luc cells alongside 2 nmol 2 or 10 μg SST0001.
B16-BL6 melanoma cells/mouse in a volume of 100 µL, alongside 20 µM 2 or 10 µg SST0001.
Mice were sacrificed after 14 days and the lungs were dissected, photographed and evaluated for the number of metastatic foci/lung. Plots and statistical analyses were carried out in Prism […]
(§2) Bioluminescence imaging of lung metastases produced by luciferase-expressing 4T1 cells was carried out using a highly sensitive, cooled charge-coupled device camera assembled in a specimen box (IVIS; Xenogen Corp, Hopkinton, MA). […] The tumor burden was quantified using Living Image software (Xenogen) (12, 13). […]
(§3) CAG myeloma - Luciferase-labeled CAG human myeloma cells (3x106) were injected into the tail vein of NOD/SCID mice. […] Tumor burden was quantified using Living Image software. […]

CAG myeloma cancer cells = assay: CAG myeloma xenograft bone metastasis model (luciferase imaging); settings: NOD/SCID mice
Excerpt: Finally, we examined a CAG myeloma xenograft model, which faithfully recapitulates the invasion of multiple myeloma to the bone marrow. We compared the efficacy of 2 to bortezomib, a proteasome inhibitor and standard treatment for multiple myeloma and lymphomas, and also explored the possibility of synergistic proteasomal and HPSE inhibitor treatment. In contrast to the single initial dose regimens used for B16 and 4T1, a continuous dosing regimen was used in this assay to gauge the efficacy of 2 over longer treatment periods. Following injection of luciferase expressing CAG cells, mice were treated with a course of 2 (300 nmol/day i.p.), bortezomib (0.5 mg/kg twice weekly i.p.), or a combination of both compounds. […]
as §1, §2, §3

Structure (SMILES): CC(=O)N[C@H]1[C@@H](O[C@H]2[C@H](O)[C@@H](O)[C@@H]3O[C@@H]3[C@@H]2C(=O)O)O[C@H](CO)[C@@H](O)[C@@H]1O [compound 2]
- lung metastases (metastatic foci/lung) (B16 melanoma cells): marked reduction in lung growths
- lung metastases (bioluminescent flux) (4T1 breast cancer cells): marked reduction in lung metastases
- metastatic burden (bioluminescent flux) (CAG myeloma cancer cells; 2 300 nmol/day i.p., bortezomib 0.5 mg/kg twice weekly i.p., imaging over time): moderate reduction in metastatic burden
- antimetastatic efficacy at 33 d timepoint (CAG myeloma cancer cells; continuous dosing, 33 d): somewhat reduced efficacy following prolonged treatment
